Data set [1] in a line: Lipophilicity, log D of the compound. The conditions noted are these: octanol/water. It is filed as physicochemical.
The target of data set [2] is T1, 5-hydroxytryptamine receptor 2B (Homo sapiens, UniProt P41595). As to the kind of experiment: Agonist activity at human recombinant 5-HT2B receptor expressed in CHOK1 cells assessed as induction of Ca2+ mobilization after 1 hr by FLIPR assay. The data set is classed as functional, cell-based, CHO-K1. In general terms: Calcium assays in cells follow changes in intracellular calcium, usually with a dye or a luminescent sensor.

Data set [3] addresses T1, 5-hydroxytryptamine receptor 2B. As to the kind of experiment: Agonist activity at human recombinant 5-HT2B receptor expressed in CHOK1 cells assessed as induction of Ca2+ mobilization at 30 uM after 1 hr by FLIPR assay relative to 5-HT. The conditions noted are these: CHO-K1. It is filed as functional, cell-based.
Data set [4] can be described thus: Permeability across dog RRCK cells. The data set is classed as ADME, cell-based, Canis lupus familiaris, MDCKII-LE. To be noted: MDCK, read-out: permeability.
Data set [5] deals with MDR1. Put plainly: Apparent permeability across apical to basolateral side in MDCK cells expressing MDR1. The data set is classed as ADME, cell-based, Canis lupus familiaris. To be noted: dog.
Data set [6] concerns MDR1. As to the kind of experiment: Efflux ratio of apparent permeability across basolateral to apical over apical to basolateral side in MDCK cells expressing MDR1. It is filed as ADME, cell-based, Canis lupus familiaris. To be noted: dog.
Data set [7] addresses T1, 5-hydroxytryptamine receptor 2B. As to the kind of experiment: Inhibition of Cy3B conjugated serotonin analogue binding to human recombinant 5-HT2B receptor expressed in CHOK1 cells after 60 mins by fluorescence polarization assay. The data set is classed as cell-based. To be noted: CHO-K1. In general terms: Fluorescence polarisation rises when a labelled molecule tumbles more slowly, as on binding a larger partner.

The structures appear in SMILES notation.

T1 sequence (P41595 whole entry): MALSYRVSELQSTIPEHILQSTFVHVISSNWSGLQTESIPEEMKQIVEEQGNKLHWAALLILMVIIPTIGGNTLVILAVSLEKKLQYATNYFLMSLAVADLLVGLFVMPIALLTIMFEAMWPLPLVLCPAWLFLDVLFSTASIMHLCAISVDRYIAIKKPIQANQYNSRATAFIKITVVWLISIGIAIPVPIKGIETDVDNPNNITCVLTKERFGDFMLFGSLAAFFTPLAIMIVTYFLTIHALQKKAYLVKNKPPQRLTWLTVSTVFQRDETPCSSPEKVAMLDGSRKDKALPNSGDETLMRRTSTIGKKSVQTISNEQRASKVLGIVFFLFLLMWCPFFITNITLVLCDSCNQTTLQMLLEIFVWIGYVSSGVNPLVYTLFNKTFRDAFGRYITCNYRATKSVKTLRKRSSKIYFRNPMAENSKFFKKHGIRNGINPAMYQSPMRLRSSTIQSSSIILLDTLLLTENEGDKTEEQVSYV

In turn, `CN(C)c1nc(Cc2ccccc2)cc2c1CCNCC2` yielded a logD in data set [1] of 0.6. The EC50 in data set [2] was 30 nM. In data set [3], the Emax was 38%. In data set [4], the Papp is 8 ×10⁻⁶ cm/s. In addition, the Papp A→B in the data set with MDR1 [5] is 2.1 ×10⁻⁶ cm/s. Also, the efflux ratio in the data set on MDR1 [6] was 2.2.
Compound `c1ccc(Cc2cc3c(c(NCC4CC4)n2)CCNCC3)cc1` displayed a logD in data set [1] of 1.2. For the same compound, in data set [2], the EC50 amounted to 22 nM. Also, in data set [3], the Emax is 51%. Also, the Papp in data set [4] was found to be 2 ×10⁻⁶ cm/s. In addition, the Papp A→B with MDR1 [5] came to 0.8 ×10⁻⁶ cm/s. For the same compound, in the data set with MDR1 [6], the efflux ratio was 6.1.
`CNc1nc(Cc2ccccc2)cc2c1CCNCC2` had a logD in data set [1] of 0.4. For the same compound, in data set [2], the EC50 was determined as 1480 nM. Further, in data set [3], the Emax amounted to 69%. The Papp in data set [4] stood at 8 ×10⁻⁶ cm/s. In the data set with MDR1 [5], the Papp A→B came to 2.5 ×10⁻⁶ cm/s. In the data set with MDR1 [6], the efflux ratio came to 2.8.
Turning to `CCCNc1nc(Cc2ccccc2)cc2c1CCNCC2`, the logD in data set [1] is 1. The EC50 in data set [2] is 27 nM. Besides, the Emax in data set [3] came out at 38%. In data set [4], the Papp stood at 4 ×10⁻⁶ cm/s. For the same compound, the Papp A→B in the data set with MDR1 [5] amounted to 1.5 ×10⁻⁶ cm/s. In addition, the efflux ratio in the data set with MDR1 [6] amounted to 3.5.
`c1ccc(Cc2cc3c(cn2)CCNCC3)cc1` returned a log distribution coefficient (logD) in data set [1] of 0.5. Also, in data set [2], the EC50 was found to be 27 nM. The Emax in data set [3] amounted to 53%. Moreover, the Papp in data set [4] was determined as 18 ×10⁻⁶ cm/s. Also, the Papp A→B in the data set with MDR1 [5] worked out at 3.9 ×10⁻⁶ cm/s. For the same compound, in the data set on MDR1 [6], the efflux ratio turned out to be 1.5.
In data set [1], `CC(C)CNc1nc(Cc2ccccc2)cc2c1CCNCC2` displayed a logD of 1.7.
For the compound `CCNc1nc(Cc2ccccc2)cc2c1CCNCC2`, the logD in data set [1] amounted to 0.6. Moreover, in data set [2], the EC50 is 18 nM. Moreover, the maximal response (Emax) in data set [3] was found to be 28%. Further, in data set [4], the Papp was found to be 7 ×10⁻⁶ cm/s. Also, in the data set with MDR1 [5], the apparent permeability from apical to basolateral (Papp A→B) was determined as 1.8 ×10⁻⁶ cm/s. Further, in the data set on MDR1 [6], the efflux ratio is 2.3.
Regarding `CC(C)Nc1nc(Cc2ccccc2)cc2c1CCNCC2`, in data set [1], the logD was 1. The EC50 in data set [2] came to 33 nM. Also, the Emax in data set [3] is 32%. For the same compound, in data set [4], the Papp was 12 ×10⁻⁶ cm/s.
In data set [1], `c1ccc(CNc2nc(Cc3ccccc3)cc3c2CCNCC3)cc1` returned a pH-dependent lipophilicity (logD) of 1.7. In data set [7], the Kb came to 121 nM. Moreover, the Papp in data set [4] came to 2 ×10⁻⁶ cm/s. Besides, the Papp A→B with MDR1 [5] was found to be 0.6 ×10⁻⁶ cm/s. The efflux ratio with MDR1 [6] was determined as 3.6.

One may read the logD as lipophilicity at a set pH, counting ionised and neutral species. A high value points to higher lipophilicity. Usually EC50 stands for the concentration that produces a half-maximal response. One may read the Emax as the maximal effect, on the per cent scale that the assay sets. By Papp A→B is commonly meant how fast a substance crosses the layer from the apical side. Broadly, the efflux ratio is a quotient of directional permeabilities that is used to spot active efflux.

The values are drawn from ChEMBL document CHEMBL3425406, “Design, Synthesis, and Evaluation of Tetrasubstituted Pyridines as Potent 5-HT2C Receptor Agonists” (ACS Med Chem Lett, 2015).
